For assay [1], the target named is Human GPR35 (Homo sapiens, UniProt Q9HC97). In words: Beta-Arrestin Assay (Tango U2OS cells, LiveBLAzer-FRET B/G). Particulars: Human GPR35 expressing Tango U2OS cells, 5 hours treatment. The class given is cell-based. The procedure:
Human GPR35 expressing Tango U2OS cells were plated in 384-well format in clear bottom plates at a cell density of 10,000 cells/well and allowed to grow overnight. The next day, cells were treated with serially diluted test compounds for 5 hours. LiveBLAzer-FRET B/G (CCF4-AM) detection reagents were then added and cells were allowed to incubate for 2 hours before reading plates on a BioTek Cytation 5 plate reader. Zaprinast was used as a positive control for dose-response curves. In order to determine EC50 values, data were fit to a four-parameter dose-response curve.

The target of assay [2] is Human GPR35 (Homo sapiens, UniProt Q9HC97, S294R). The assay is described as follows: Alternative Beta-Arrestin Assay (JumpIn 294R Tango U2OS cells, LiveBLAzer-FRET B/G). In kind it is cell-based. Particulars: Human GPR35 expressing JumpIn 294R Tango U2OS cells, 5 hours treatment. In a few lines: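 U2OS Tango cells expressing human GPR35 S294R, plated overnight, exposed to serially diluted compounds for 5 hours. β-lactamase reporter read with LiveBLAzer-FRET B/G (CCF4-AM) after 2 h; EC50 from four-parameter fit, zaprinast as positive control.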
Human GPR35 (Homo sapiens, UniProt Q9HC97, S294R), sequence (Q9HC97 whole entry S294R): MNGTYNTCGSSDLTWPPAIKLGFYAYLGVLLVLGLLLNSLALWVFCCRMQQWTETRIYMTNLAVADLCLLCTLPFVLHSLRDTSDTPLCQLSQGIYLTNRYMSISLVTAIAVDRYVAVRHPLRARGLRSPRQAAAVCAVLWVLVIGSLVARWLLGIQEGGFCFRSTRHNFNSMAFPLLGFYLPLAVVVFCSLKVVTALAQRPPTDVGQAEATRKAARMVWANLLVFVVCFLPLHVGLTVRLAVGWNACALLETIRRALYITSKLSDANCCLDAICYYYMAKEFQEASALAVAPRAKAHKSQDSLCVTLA

Bounds are passed on as bounds.

Human GPR35 (Homo sapiens, UniProt Q9HC97), sequence (Q9HC97 whole entry): as the sequence (Q9HC97 whole entry S294R) above, with R294S counted along it

The EC50 is the concentration needed to bring the measured effect to its halfway point. Take `CCOc1cc(-c2ccccc2)ccc1-c1nc2[nH]nnc2c(=O)[nH]1` [Compound 101, 5-(3-Ethoxy-[1,1′-biphenyl]-4-yl)-3,6-dihydro-7H-[1,2,3]triazolo[4,5-d]pyrimidin-7-one]: the EC50 at Human GPR35 [1] and at Human GPR35 [2] was not above 10 µM each time. Consider `CCOc1cc(-c2cccnc2)ccc1-c1nc2[nH]nnc2c(=O)[nH]1` [Compound 102, 5-(2-Ethoxy-4-(pyridin-3-yl)phenyl)-3,6-dihydro-7H-[1,2,3]triazolo[4,5-d]pyrimidin-7-one], for which the EC50 on Human GPR35 [1] and on Human GPR35 [2] was not above 10 µM throughout.

With `CCOc1cc(-c2ncccn2)ccc1-c1nc2[nH]nnc2c(=O)[nH]1` [Compound 103, 5-(2-Ethoxy-4-(pyrimidin-2-yl)phenyl)-3,6-dihydro-7H-[1,2,3]triazolo[4,5-d]pyrimidin-7-one], the EC50 at Human GPR35 [1] and on Human GPR35 [2] was not above 10 µM each time. Consider `CCOc1cc(-c2ccncc2)ccc1-c1nc2[nH]nnc2c(=O)[nH]1` [Compound 104, 5-(2-Ethoxy-4-(pyridin-4-yl)phenyl)-3,6-dihydro-7H-[1,2,3]triazolo[4,5-d]pyrimidin-7-one], for which the EC50 on Human GPR35 [1] and on Human GPR35 [2] was not above 10 µM in each case.

Turning to `CCOc1cc(-c2ccccn2)ccc1-c1nc2[nH]nnc2c(=O)[nH]1` [Compound 105, 5-(2-Ethoxy-4-(pyridin-2-yl)phenyl)-3,6-dihydro-7H-[1,2,3]triazolo[4,5-d]pyrimidin-7-one], the concentration for a half-maximal effect (EC50) at Human GPR35 [1] and on Human GPR35 [2] was not above 10 µM in each case. Turning to `CCOc1cc(-c2ccccc2C(=O)OC)ccc1-c1nc2[nH]nnc2c(=O)[nH]1` [Compound 106, Methyl 3′-ethoxy-4′-(7-oxo-6,7-dihydro-3H-[1,2,3]triazolo[4,5-d]pyrimidin-5-yl)-[1,1′-biphenyl]-2-carboxylate], the concentration for a half-maximal effect (EC50) at Human GPR35 [1] and on Human GPR35 [2] was not above 10 µM each time. As for `CCOc1cc(-c2cccc(C(=O)OC)c2)ccc1-c1nc2[nH]nnc2c(=O)[nH]1` [Compound 107, Methyl 3′-ethoxy-4′-(7-oxo-6,7-dihydro-3H-[1,2,3]triazolo[4,5-d]pyrimidin-5-yl)-[1,1′-biphenyl]-3-carboxylate], the EC50 on Human GPR35 [1] and on Human GPR35 [2] was not above 10 µM each time. As for `CCOc1cc(-c2ccc(C(=O)OC)cc2)ccc1-c1nc2[nH]nnc2c(=O)[nH]1` [Compound 108, Methyl 3′-ethoxy-4′-(7-oxo-6,7-dihydro-3H-[1,2,3]triazolo[4,5-d]pyrimidin-5-yl)-[1,1′-biphenyl]-4-carboxylate], the EC50 at Human GPR35 [1] and at Human GPR35 [2] was not above 10 µM in each case. Take `CCOc1cc(-c2ccccc2C(=O)O)ccc1-c1nc2[nH]nnc2c(=O)[nH]1` [Compound 109, 3′-Ethoxy-4′-(7-oxo-6,7-dihydro-3H-[1,2,3]triazolo[4,5-d]pyrimidin-5-yl)-[1,1′-biphenyl]-2-carboxylic acid]: the figures for the EC50 on Human GPR35 [1] and at Human GPR35 [2] were not above 10 µM and 10 to 50 µM, respectively. Compound `CCOC(=O)Cc1cccc(-c2ccc(-c3nc4[nH]nnc4c(=O)[nH]3)c(OCC)c2)c1` [Compound 294, ethyl 2-(3′-ethoxy-4′-(7-oxo-6,7-dihydro-3H-[1,2,3]triazolo[4,5-d]pyrimidin-5-yl)-[1,1′-biphenyl]-3-yl)acetate] yielded a concentration for a half-maximal effect (EC50) at Human GPR35 [2] not above 10 µM. On the same count and under the same terms, to `CCOc1cc(-c2cccc(CC(=O)O)c2)ccc1-c1nc2[nH]nnc2c(=O)[nH]1` [Compound 295, 2-(3′-ethoxy-4′-(7-oxo-6,7-dihydro-3H-[1,2,3]triazolo[4,5-d]pyrimidin-5-yl)-[1,1′-biphenyl]-3-yl)acetic acid] belongs not above 10 µM. Still for that read-out and setting: under `CCOC(=O)C(C)c1cccc(-c2ccc(-c3nc4[nH]nnc4c(=O)[nH]3)c(OCC)c2)c1` (stereo not shown) [Compound 296, ethyl 2-(3′-ethoxy-4′-(7-oxo-6,7-dihydro-3H-[1,2,3]triazolo[4,5-d]pyrimidin-5-yl)-[1,1′-biphenyl]-3-yl)propanoate] stands not above 10 µM; under `CCOc1cc(-c2cccc(C(C)C(=O)O)c2)ccc1-c1nc2[nH]nnc2c(=O)[nH]1` (stereo not shown) [Compound 297, 2-(3′-ethoxy-4′-(7-oxo-6,7-dihydro-3H-[1,2,3]triazolo[4,5-d]pyrimidin-5-yl)-[1,1′-biphenyl]-3-yl)propanoic acid], not above 10 µM. The same measure, in the same setting: under `CCOc1cc(-c2cccc(C(C)(C)C(=O)O)c2)ccc1-c1nc2[nH]nnc2c(=O)[nH]1` [Compound 298, 2-(3′-ethoxy-4′-(7-oxo-6,7-dihydro-3H-[1,2,3]triazolo[4,5-d]pyrimidin-5-yl)-[1,1′-biphenyl]-3-yl)-2-methylpropanoic acid] stands not above 10 µM. For the compound `CCOc1cc(-c2ccc(OCCN3CCCC3)c(/C=C(\C)C(=O)O)c2)ccc1-c1nc2[nH]nnc2c(=O)[nH]1` [Compound 299, (E)-3-(3′-ethoxy-4′-(7-oxo-6,7-dihydro-3H-[1,2,3]triazolo[4,5-d]pyrimidin-5-yl)-4-(2-(pyrrolidin-1-yl)ethoxy)-[1,1′-biphenyl]-3-yl)-2-methylacrylic acid], the EC50 on Human GPR35 [2] is not above 10 µM.

As to `CCOc1cc(-c2ccc(OCCN3CCCC3)c(CC(C)C(=O)O)c2)ccc1-c1nc2[nH]nnc2c(=O)[nH]1` (stereo not shown) [Compound 300, 3-(3′-ethoxy-4′-(7-oxo-6,7-dihydro-3H-[1,2,3]triazolo[4,5-d]pyrimidin-5-yl)-4-(2-(pyrrolidin-1-yl)ethoxy)-[1,1′-biphenyl]-3-yl)-2-methylpropanoic acid], at Human GPR35 [2], the EC50 is not above 10 µM. On the same count and under the same terms, under `CCOc1cc(-c2ccc(OC(C)C)c(/C=C(\C)C(=O)O)c2)ccc1-c1nc2[nH]nnc2c(=O)[nH]1` [Compound 301, (E)-3-(3′-ethoxy-4-isopropoxy-4′-(7-oxo-6,7-dihydro-3H-[1,2,3]triazolo[4,5-d]pyrimidin-5-yl)-[1,1′-biphenyl]-3-yl)-2-methylacrylic acid] stands not above 10 µM; under `CCOc1cc(-c2ccc(OC(C)C)c(CC(C)C(=O)O)c2)ccc1-c1nc2[nH]nnc2c(=O)[nH]1` (stereo not shown) [Compound 302, 3-(3′-ethoxy-4-isopropoxy-4′-(7-oxo-6,7-dihydro-3H-[1,2,3]triazolo[4,5-d]pyrimidin-5-yl)-[1,1′-biphenyl]-3-yl)-2-methylpropanoic acid], not above 10 µM; under `CCOc1cc(-c2ccc3c(c2)CC(C)(C)C(=O)O3)ccc1-c1nc2[nH]nnc2c(=O)[nH]1` [Compound 305, 5-(4-(3,3-dimethyl-2-oxochroman-6-yl)-2-ethoxyphenyl)-3,6-dihydro-7H-[1,2,3]triazolo[4,5-d]pyrimidin-7-one], not above 10 µM. Regarding `CCOc1cc(-c2ccc(O)c(CCC(=O)O)c2)ccc1-c1nc2[nH]nnc2c(=O)[nH]1` [Compound 309, 3-(3′-ethoxy-4-hydroxy-4′-(7-oxo-6,7-dihydro-3H-[1,2,3]triazolo[4,5-d]pyrimidin-5-yl)-[1,1′-biphenyl]-3-yl)propanoic acid], at Human GPR35 [2], the concentration for a half-maximal effect (EC50) was not above 10 µM. Still for that read-out and setting: under `CCOc1cc(-c2cccc(CC(C)C(=O)OC)c2)ccc1-c1nc2[nH]nnc2c(=O)[nH]1` (stereo not shown) [Compound 310, methyl 3-(3′-ethoxy-4′-(7-oxo-6,7-dihydro-3H-[1,2,3]triazolo[4,5-d]pyrimidin-5-yl)-[1,1′-biphenyl]-3-yl)-2-methylpropanoate] stands not above 10 µM; under `CCOc1cc(-c2ccc(OC)c(/C=C(\C)C(=O)O)c2)ccc1-c1nc2[nH]nnc2c(=O)[nH]1` [Compound 315, (E)-3-(3′-ethoxy-4-methoxy-4′-(7-oxo-6,7-dihydro-3H-[1,2,3]triazolo[4,5-d]pyrimidin-5-yl)-[1,1′-biphenyl]-3-yl)-2-methylacrylic acid], not above 10 µM; under `CCOc1cc(-c2ccc(OC)c(CC(C)C(=O)O)c2)ccc1-c1nc2[nH]nnc2c(=O)[nH]1` (stereo not shown) [Compound 316, 3-(3′-ethoxy-4-methoxy-4′-(7-oxo-6,7-dihydro-3H-[1,2,3]triazolo[4,5-d]pyrimidin-5-yl)-[1,1′-biphenyl]-3-yl)-2-methylpropanoic acid], not above 10 µM. Same read-out and setting: under `CCOc1cc(-c2ccc(OCCN3CCCC3)c(/C=C/C(=O)O)c2)ccc1-c1nc2[nH]nnc2c(=O)[nH]1` [Compound 317, (E)-3-(3′-ethoxy-4′-(7-oxo-6,7-dihydro-3H-[1,2,3]triazolo[4,5-d]pyrimidin-5-yl)-4-(2-(pyrrolidin-1-yl)ethoxy)-[1,1′-biphenyl]-3-yl)acrylic acid] stands not above 10 µM; under `CCOc1cc(-c2ccc(OCCN3CCCC3)c(CCC(=O)O)c2)ccc1-c1nc2[nH]nnc2c(=O)[nH]1` [Compound 318, 3-(3′-ethoxy-4′-(7-oxo-6,7-dihydro-3H-[1,2,3]triazolo[4,5-d]pyrimidin-5-yl)-4-(2-(pyrrolidin-1-yl)ethoxy)-[1,1′-biphenyl]-3-yl)propanoic acid], not above 10 µM; under `CCOc1cc(-c2ccc(OCCN(C)C)c(/C=C/C(=O)O)c2)ccc1-c1nc2[nH]nnc2c(=O)[nH]1` [Compound 319, (E)-3-(4-(2-(dimethylamino)ethoxy)-3′-ethoxy-4′-(7-oxo-6,7-dihydro-3H-[1,2,3]triazolo[4,5-d]pyrimidin-5-yl)-[1,1′-biphenyl]-3-yl)acrylic acid], not above 10 µM.

In turn, `CCOc1cc(-c2ccc(OCCN(C)C)c(CCC(=O)O)c2)ccc1-c1nc2[nH]nnc2c(=O)[nH]1` [Compound 320, 3-(4-(2-(dimethylamino)ethoxy)-3′-ethoxy-4′-(7-oxo-6,7-dihydro-3H-[1,2,3]triazolo[4,5-d]pyrimidin-5-yl)-[1,1′-biphenyl]-3-yl)propanoic acid] had an EC50 at Human GPR35 [2] not above 10 µM.

As for `CCOc1cc(-c2ccc(C)c(CCC(=O)O)c2)ccc1-c1nc2[nH]nnc2c(=O)[nH]1` [Compound 321, 3-(3′-ethoxy-4-methyl-4′-(7-oxo-6,7-dihydro-3H-[1,2,3]triazolo[4,5-d]pyrimidin-5-yl)-[1,1′-biphenyl]-3-yl)propanoic acid], the concentration giving a half-maximal response (EC50) on Human GPR35 [2] is not above 10 µM.

These data come from patent US11053251B2, “GPR35 modulators” (Prometheus Biosciences, Inc., priority 2019, dated 2021).
